Key:
GPR120 = target: T1, GPR120 (Mus musculus, UniProt Q7TMA4); test: Co-immunoprecipitation of β-arrestin 2 with GPR120 in colon lysates of DSS mice; type: in vivo
T1 construct: Colon lysates (˜900 μg proteins) from 6 mice of each experimental group were pooled; from tissue; host or cells: mouse colon (DSS colitis model)
T1 sequence (Q7TMA4 1-361): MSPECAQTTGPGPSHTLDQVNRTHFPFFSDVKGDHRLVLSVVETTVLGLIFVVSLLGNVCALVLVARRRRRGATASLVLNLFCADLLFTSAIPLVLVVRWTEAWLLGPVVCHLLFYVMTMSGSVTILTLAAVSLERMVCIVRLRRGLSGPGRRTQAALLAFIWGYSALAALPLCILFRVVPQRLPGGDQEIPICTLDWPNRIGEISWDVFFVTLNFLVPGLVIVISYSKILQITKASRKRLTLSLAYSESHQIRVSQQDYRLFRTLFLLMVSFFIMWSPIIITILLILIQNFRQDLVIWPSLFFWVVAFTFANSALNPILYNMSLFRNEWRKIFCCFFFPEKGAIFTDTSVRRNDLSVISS
Protocol: (§1) The efficiency of DFL in activating the GPR120 and/or GPR40 receptors was tested.
(§2) Agonist-induced GPR120 can engage multiple signalling pathways to regulate distinct physiological outcomes. After ligand binding, B-arrestins, such as B-arrestin 2 can associate with the cytoplasmic domains of GPR120 and couple the receptor to specific downstream signaling pathways (FIG. 9). For this reason, we verified the agonist efficiency in activating GPR120 and GPR40 by immunoprecipitation. Colon lysates (˜900 μg proteins) from 6 mice of each experimental group were pooled, precleared with protein A/G plus-agarose (Santa Cruz) and then incubated with the antibody used for immunoprecipitation (anti-GPR120 or anti-GPR40, Abcam) at 4° C. for 16 h, followed by incubation with protein A/G plus-agarose for 5 h. The agarose beads were then collected by centrifugation, washed four times with lysis buffer, and heated to 95° C. for 5 min after adding Laemmli buffer. The resulting immunoprecipitates were separated by SDS-PAGE and probed with the anti-β-arrestin 2 antibody (Santa Cruz).
(§3) Upon western blotting, a densitometric analysis of the blots was performed using Image J. FIGS. 10 and 11 show the ratio between co-immunoprecipitated β-arrestin 2 and GPR120 (FIG. 10) or GPR40 levels (FIG. 11) and the results of the blotting.

GPR40 = target: T2, GPR40 (Mus musculus, UniProt Q76JU9); test: Co-immunoprecipitation of β-arrestin 2 with GPR40 in colon lysates of DSS mice; type: in vivo; settings: pooled colon lysates, day 39; compared to DSS or DSS+vehicle
T2 construct: Colon lysates (˜900 μg proteins) from 6 mice of each experimental group were pooled; from tissue; host or cells: mouse colon (DSS colitis model)
Protocol: as §1, §2, §3

[1] = Biodistribution in colon after single oral dose; type: in vivo; settings: PO 90.0 mg/kg, male Swiss albino mice
Protocol: The biodistribution of DFL23806 in the proximal and distal colon was evaluated in male Swiss albino mice following single dose oral administration of DFL23806 90 mg/kg.
Colon concentration (ng/g) of DFL23806 after PO (90.0 mg/kg) dose administration to male Swiss albino mice.
Colon/Plasma ratio of DFL23806 after PO (90.0 mg/kg) dose administration to male Swiss albino mice.

human GPR120 [2] = target: T3, human GPR120 (Homo sapiens, UniProt Q5NUL3); test: Internalization of GPR120 (Enzyme Fragment Complementation, DiscoverX); type: cell-based; settings: at 100 μM
T3 sequence (Q5NUL3 1-361): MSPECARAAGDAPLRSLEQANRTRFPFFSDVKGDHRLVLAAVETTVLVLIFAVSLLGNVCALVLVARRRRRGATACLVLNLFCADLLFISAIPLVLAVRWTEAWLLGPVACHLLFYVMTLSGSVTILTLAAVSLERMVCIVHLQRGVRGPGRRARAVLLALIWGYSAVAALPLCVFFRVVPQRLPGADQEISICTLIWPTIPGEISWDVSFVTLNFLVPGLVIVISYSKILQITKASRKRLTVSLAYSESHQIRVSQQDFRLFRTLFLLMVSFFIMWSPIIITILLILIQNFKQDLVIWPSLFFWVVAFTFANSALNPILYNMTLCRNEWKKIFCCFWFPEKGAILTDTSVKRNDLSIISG

human GPR120 [3] = target: T3, human GPR120; test: Activation of GPR120 receptor; type: cell-based

T2 sequence (Q76JU9 whole entry): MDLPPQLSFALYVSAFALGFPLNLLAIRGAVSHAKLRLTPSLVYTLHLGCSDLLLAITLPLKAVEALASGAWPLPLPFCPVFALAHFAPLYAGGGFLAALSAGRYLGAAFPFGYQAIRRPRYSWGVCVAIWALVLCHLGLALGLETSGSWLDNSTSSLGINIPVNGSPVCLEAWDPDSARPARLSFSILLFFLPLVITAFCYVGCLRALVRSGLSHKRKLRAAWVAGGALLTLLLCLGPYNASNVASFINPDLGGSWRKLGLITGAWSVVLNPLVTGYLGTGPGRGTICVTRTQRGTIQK

Cc1cc(F)cc(C)c1NS(=O)(=O)c1cccc(CCCCCCC(=O)O)c1 [DFL23806, 7-(3-(N-(4-fluoro-2,6-dimethylphenyl)sulfamoyl)phenyl)heptanoic acid]
selectivity GPR120 versus GPR40 (GPR120; from β-arrestin 2 co-immunoprecipitation with GPR120 and GPR40): GPR120 selective agonist
association between GPR120 and β-arrestin 2 (ratio co-immunoprecipitated β-arrestin 2 / GPR120) (GPR120; pooled colon lysates, day 39, DFL 90 mg/kg, compared to control groups or DSS+5-ASA 60 mg/Kg): higher compared to control groups
GPR40 and β-arrestin 2 association (ratio co-immunoprecipitated β-arrestin 2 / GPR40) (GPR40): no increase
Colon/Plasma ratio, Mean ([1]; 4.00 h, 90 mg/kg): 64.20
Kp at 1 h ([1]; mouse, colon/plasma, 1.00 h, read-out: Colon/Plasma ratio, Mean): 1.63
Kp at 4 h ([1]; mouse, colon/plasma, 4.00 h, read-out: Colon/Plasma ratio, Mean): 64.2
concentration at 1 h ([1]; mouse, colon, 1.00 h): 68.3 ng/g
concentration at 4 h ([1]; mouse, colon, 4.00 h): 3570 ng/g
efficacy of internalization of the human GPR120 receptor (human GPR120 [2]): 59.1%
AC50 (human GPR120 [3]): 3.9 µM

— patent US20250177329A1, “GPR120 AGONISTS FOR THE TREATMENT OF INFLAMMATORY BOWEL DISEASE” (Dompe' Farmaceutici SPA, priority 2022, published 2025)
